Assay results: publication PMC11173846, “Comparison of HPLC, HPTLC, and In Silico Lipophilicity Parameters Determined for 5-Heterocyclic 2-(2,4-Dihydroxyphenyl)-1,3,4-thiadiazoles” (Molecules, 2024)

Assay: Chromatographic lipophilicity overall (HPTLC and HPLC systems), structure-retention comparison and PCA
Assay type: physicochemical
Details: for lipophilicity by heterocyclic substituent (chromatographic parameters, in words): Tables S1–S7, all chromatographic systems; for lipophilicity by first principal component score (average value of lipophilicity, in words): PCA of experimental and computational data, PC1
Procedure: Chromatographic studies were carried out using both HPTLC and HPLC methods under the isocratic conditions. In all systems, there were stated linear relationships between the RM (HPTLC) or log kw (HPLC) values and the organic modifier content (ϕ) in the mobile phase. This is described by the Soczewinski–Wachtmeister equation [31] as follows:RM = RMw + bϕ(1) log k = log kw + bϕ(2) where ϕ expresses the volume fraction of the organic solvent in the mobile phase; RMw (log kw) corresponds to 0% of the organic solvent content in the mobile phase; b represents the slope of a regression line.
The retention behavior of the compounds was analyzed by HPTLC using the octyl C8 and octadecyl C18 stationary phases and MeOH, ACN, acetone, and dioxane as organic modifiers (Supplementary Materials Tables S1–S4). The chromatographic evaluation of using the HPLC methods was made in the systems, with C8/MeOH, C8/ACN, and C18/ACN analogous to HPTLC (Tables S5 and S7). The measurements using the IAM and Chol stationary phases and the buffered mobile phases (pH = 7.4) were additionally used (Supplementary Materials Tables S5–S7).
The lipophilicity parameters for the Et derivatives were usually higher than those for chlorine ones (1 and 2; 7 and 8). This was an expected effect, taking into account the hydrophobicity parameter π (Hansch–Fujita π constant) for these substituents. Deviations from this order were sometimes observed. […] (Supplementary Materials Tables S1–S7).
To investigate the similarity between the investigated compounds, the obtained experimental and computational data were analyzed using scaled principal component analysis.
The most important conclusion from the PCA analysis is that all coefficients, both computational and experimental ones, were highly redundant. In total, 85% of the information was common for them and could be collected together to form the first principal component. The score could be interpreted as an average value of lipophilicity.

Row | lipophilicity by heterocyclic substituent (chromatographic parameters, in words) | lipophilicity by first principal component score (average value of lipophilicity, in words) | SMILES
1 | low lipophilicity | – | Oc1cc(O)c(-c2nnc(-c3ccco3)s2)cc1Cl [Compound 1]
2 | – | highest lipophilicity | CCc1cc(-c2nnc(-c3cc4cc(Br)ccc4n3C)s2)c(O)cc1O [Compound 5]
3 | low lipophilicity | – | Oc1ccc(-c2nnc(-c3ccc4nonc4c3)s2)c(O)c1 [Compound 6]
4 | – | lowest lipophilicity | Oc1ccc(-c2nnc(-c3ccn4c(Br)cnc4c3)s2)c(O)c1 [Compound 9]
5 | lowest lipophilicity | – | Oc1ccc(-c2nnc(-c3ccc(N4CCOCC4)nc3)s2)c(O)c1 [Compound 13]
